The target in one assay is T1, GST-ALK5 (Homo sapiens, UniProt P36897).
T1 sequence (P36897 34-503): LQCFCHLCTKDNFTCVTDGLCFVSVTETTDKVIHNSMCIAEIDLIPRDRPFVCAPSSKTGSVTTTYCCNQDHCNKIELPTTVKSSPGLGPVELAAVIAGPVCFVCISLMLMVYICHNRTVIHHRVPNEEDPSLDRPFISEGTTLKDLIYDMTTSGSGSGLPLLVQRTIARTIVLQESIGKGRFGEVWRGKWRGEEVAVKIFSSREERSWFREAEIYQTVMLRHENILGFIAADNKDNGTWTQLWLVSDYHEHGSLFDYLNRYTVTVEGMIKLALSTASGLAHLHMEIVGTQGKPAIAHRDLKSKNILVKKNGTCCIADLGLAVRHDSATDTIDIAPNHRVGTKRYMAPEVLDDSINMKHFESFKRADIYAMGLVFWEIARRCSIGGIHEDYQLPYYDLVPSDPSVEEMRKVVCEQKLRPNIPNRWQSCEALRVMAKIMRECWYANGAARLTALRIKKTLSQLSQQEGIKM
Description: In-vitro (enzyme) kinase assay, 384-well flashplate (example 14). In kind it is biochemical. The note with it: GST-ALK5, GST-SMAD2 substrate, 33P-ATP flashplate, 30° C. 45 min; IC50 classes; read-out: TβR activity (example 14). As to the method: In-Vitro (Enzyme) Assay for Determination of the Efficacy of Inhibitors of the Inhibition of TGF-Beta-Mediated Effects
The kinase assay was carried out as 384-well flashplate assay. 31.2 nM of GST-ALK5, 439 nM of GST-SMAD2 and 3 mM of ATP (with 0.3 μCi of ^33P-ATP/well) were incubated in a total volume of 35 μl (20 mM of HEPES, 10 mM of MgCl2, 5 mM of MnCl2, 1 mM of DTT, 0.1% of BSA, pH 7.4) without or with test substance (5-10 concentrations) at 30° C. for 45 min. The reaction was stopped using 25 μl of 200 mM EDTA solution, filtered with suction at room temperature after 30 min, and the wells were washed with 3 times 100 μl of 0.9% NaCl solution. Radioactivity was measured in the TopCount. The IC50 values were calculated using RS1. Above and below, all temperatures were indicated in ° C.

Assay [1] concerns lung epithelial cell line Mv1Lu. Description: Cellular assay for TGF-beta receptor I kinase inhibitors: elimination of TGF-beta-mediated growth inhibition (example 13). The note with it: 48 h; Mv1Lu cells, 1 ng/ml TGF-beta, 0.5% FCS, two days, Crystal Violet staining; read-out: TβR activity (example 13). In kind it is cell-based. As to the method: Cellular Assay for Testing TGF-Beta Receptor I Kinase Inhibitors
As an example, the ability of the inhibitors to eliminate TGF-beta-mediated growth inhibition was tested. Cells of the lung epithelial cell line Mv1Lu were sown in a defined cell density in a 96-well microtiter plate and cultivated overnight under standard conditions. Next day, the medium was replaced by medium which comprises 0.5% of FCS and 1 ng/ml of TGF-beta, and the test substances were added in defined concentrations, generally in the form of dilution series with 5 fold steps. The concentration of the solvent DMSO was constant at 0.5%. After a further two days, Crystal Violet staining of the cells was carried out. After extraction of the Crystal Violet from the fixed cells, the absorption was measured spectrophotometrically at 550 nm. It could be used as a quantitative measure of the adherent cells present and thus of the cell proliferation during the culture.

For `Fc1ccc(Cl)cc1-c1cc(Nc2ccncc2OCCCN2CCOCC2)c2cccnc2n1` [compound 34], on GST-ALK5, the IC50 is below 100 nM. For `Cn1ccc(-c2cc(Nc3ccncc3)c3cccnc3n2)n1` [compound 35], the IC50 on GST-ALK5 is 100 to 1000 nM. Turning to `Cn1nccc1-c1cc(Nc2ccncc2)c2cccnc2n1` [compound 36], the IC50 on GST-ALK5 lay in the range of 1000 to 10000 nM. Take `OCc1cnccc1Nc1cc(-c2cc(C(F)(F)F)ccc2F)nc2ncccc12` [compound 37]: at GST-ALK5, the IC50 is below 100 nM. Same read-out and setting: the figure for `Fc1ccc(OC(F)(F)F)cc1-c1cc(Nc2ccncc2)c2cccnc2n1` [compound 38] is below 100 nM; for `Fc1ccc(Cl)cc1-c1cc(Nc2ccnc(Nc3cc(-c4cc(Cl)ccc4F)nc4ncccc34)n2)c2cccnc2n1` [compound 39] it is 1000 to 10000 nM; for `COC(=O)c1cnccc1Nc1cc(-c2cc(Cl)ccc2F)nc2ncccc12` [compound 40] it is below 100 nM. The same measure, in the same setting: the figure for `N#Cc1cncnc1Nc1cc(-c2cc(Cl)ccc2F)nc2ncccc12` [compound 41] is below 100 nM; for `CNC(=O)c1cnccc1Nc1cc(-c2cc(Cl)ccc2F)nc2ncccc12` [compound 42] it is below 100 nM; for `Fc1cc(F)c(-c2cc(Nc3ccncc3)c3cccnc3n2)cc1F` [compound 43] it is below 100 nM. `Fc1ccc(C(F)(F)F)cc1-c1cc(Nc2ncncn2)c2cccnc2n1` [compound 44]: the IC50 on GST-ALK5 is below 100 nM. Regarding `CCN(CCOc1cnccc1Nc1cc(-c2cc(Cl)ccc2F)nc2ncccc12)C(=O)OC(C)(C)C` [compound 45], on GST-ALK5, the IC50 lay in the range of 100 to 1000 nM. As for `CCNCCOc1cnccc1Nc1cc(-c2cc(Cl)ccc2F)nc2ncccc12` [compound 46], the IC50 at GST-ALK5 is 100 to 1000 nM. Same read-out and setting: then `CN1CCC(COc2cnccc2Nc2cc(-c3cc(Cl)ccc3F)nc3ncccc23)CC1` [compound 47], with below 100 nM.

For the compound `COC(=O)c1cc(Nc2cc(-c3cc(Cl)ccc3F)nc3ncccc23)ccn1` [compound 48], on GST-ALK5, the IC50 is below 100 nM. With `Cc1cccc(-c2cc(Nc3ccncn3)c3cccnc3n2)n1` [compound 49], at GST-ALK5, the IC50 was below 100 nM. On the same count and under the same terms, then `Fc1cc(F)c(-c2cc(Nc3ccncn3)c3cccnc3n2)cc1F` [compound 50], with below 100 nM; and `CC(C)(C)OC(=O)Nc1nccc(Nc2cc(-c3cc(Cl)ccc3F)nc3ncccc23)n1` [compound 51], with below 100 nM.

As for `Nc1nccc(Nc2cc(-c3cc(Cl)ccc3F)nc3ncccc23)n1` [compound 52], the IC50 on GST-ALK5 was below 100 nM. For `CNC(=O)c1cc(Nc2cc(-c3cc(Cl)ccc3F)nc3ncccc23)ccn1` [compound 53], the IC50 at GST-ALK5 is below 100 nM. The same measure, in the same setting: then `Fc1ccc(Cl)cc1-c1cc(-n2ccc3cncnc32)c2cccnc2n1` [compound 54], with below 100 nM; and `Cc1cccc(-c2cc(Nc3cc(N)ncn3)c3cccnc3n2)n1` [compound 55], with below 100 nM.

On to `Fc1ccc(Cl)cc1-c1cc(Oc2ccncc2)c2cccnc2n1` [compound 56], for which the IC50 at GST-ALK5 was above 10000 nM. Still for that read-out and setting: the figure for `Cc1cccc(-c2cc(-n3ccc4cnccc43)c3cccnc3n2)n1` [compound 57] is below 100 nM. With `Fc1ccc(Cl)cc1-c1cc(Sc2ccncc2)c2cccnc2n1` [compound 58], the IC50 on GST-ALK5 was below 100 nM. In the case of `Cc1cccc(-c2cc(-n3ccc4cncnc43)c3cccnc3n2)n1` [compound 59], at GST-ALK5, the IC50 fell in the range of 100 to 1000 nM. As for `CCNC(=O)c1cnccc1Nc1cc(-c2cccc(C)n2)nc2ncccc12` [compound 60], the IC50 on GST-ALK5 is below 100 nM. Turning to `N#Cc1ccccc1-c1cc(Nc2ccncc2)c2cccnc2n1` [compound 61], the IC50 on GST-ALK5 is 100 to 1000 nM. In the case of `Fc1ccc(Cl)cc1-c1cc(Nc2ccnc(Cl)c2)c2cccnc2n1` [compound 62], the IC50 at GST-ALK5 is below 100 nM. With `O=C(O)c1cnccc1Nc1cc(-c2cc(Cl)ccc2F)nc2ncccc12` [compound 63], the IC50 on GST-ALK5 was below 100 nM.

On to `N#Cc1cnccc1Nc1cc(-c2cc(Cl)ccc2F)nc2ncccc12` [compound 65], for which, at GST-ALK5, the IC50 is below 100 nM. Turning to `CC(=O)Nc1cc(Nc2cc(-c3cc(Cl)ccc3F)nc3ncccc23)ccn1` [compound 67], the IC50 at GST-ALK5 was below 100 nM.

In the case of `O=C(O)c1cc(Nc2cc(-c3cc(Cl)ccc3F)nc3ncccc23)ccn1` [compound 68], the IC50 at GST-ALK5 lay in the range of 1000 to 10000 nM. On the same count and under the same terms, the figure for `CC(C)C(=O)Nc1cc(Nc2cc(-c3cc(Cl)ccc3F)nc3ncccc23)ccn1` [compound 70] is below 100 nM; for `Cc1nn(-c2cc(-c3cc(Cl)ccc3F)nc3ncccc23)c2ccncc12` [compound 71] it is below 100 nM. On to `CN(C)CCNC(=O)c1cnccc1Nc1cc(-c2cc(Cl)ccc2F)nc2ncccc12` [compound 72], for which the IC50 (at GST-ALK5; in assay [1]) was below 100 nM in each case.

In the case of `Fc1ccc(Cl)cc1-c1cc(-n2ncc3cnccc32)c2cccnc2n1` [compound 73], the IC50 (on GST-ALK5; in assay [1]) was below 100 nM each time. In the case of `CS(=O)(=O)Nc1cc(Nc2cc(-c3cc(Cl)ccc3F)nc3ncccc23)ccn1` [compound 74], the figures for the IC50 (at GST-ALK5; in assay [1]) were 100 to 1000 nM and 1000 to 10000 nM, respectively.

Take `Fc1ccc(Cl)cc1-c1cc(Cc2ccncc2)c2cccnc2n1` [compound 75]: the IC50 at GST-ALK5 is 1000 to 10000 nM; in assay [1], above 10000 nM. For `Oc1nccc(Nc2cc(-c3cc(Cl)ccc3F)nc3ncccc23)n1` [compound 76], in that order: 100 to 1000 nM and 1000 to 10000 nM. Consider `Cc1cccc(-c2cc(-n3nc(C)c4cnccc43)c3cccnc3n2)n1` [compound 77], for which the IC50 at GST-ALK5 is below 100 nM; in assay [1], 1000 to 10000 nM.

As for `OCc1cnccc1Nc1cc(-c2cc(F)ccc2F)nc2ncccc12` [compound 78], the IC50 (on GST-ALK5; in assay [1]) was below 100 nM each time. In the case of `CCOc1ccc(Cl)cc1-c1cc(Nc2ccnc(NC(C)=O)c2)c2cccnc2n1` [compound 79], the IC50 (on GST-ALK5; in assay [1]) was 100 to 1000 nM throughout. Consider `Cc1cccc(-c2cc(Nc3ccncc3Cl)c3cccnc3n2)n1` [compound 80], for which the IC50 (on GST-ALK5; in assay [1]) was below 100 nM throughout. For the compound `Cc1cccc(-c2cc(Nc3ccncc3CO)c3cccnc3n2)n1` [compound 81], the IC50 on GST-ALK5 was below 100 nM; in assay [1], 100 to 1000 nM. Take `O=C(CO)Nc1cc(Nc2cc(-c3cc(Cl)ccc3F)nc3ncccc23)ccn1` [compound 82]: the IC50 (on GST-ALK5; in assay [1]) was below 100 nM throughout.

`Cc1cccc(-c2cc(Nc3ccnc(Cl)c3)c3cccnc3n2)n1` [compound 83]: the figures for the IC50 (on GST-ALK5; in assay [1]) were 100 to 1000 nM and 1000 to 10000 nM, respectively. For `Cc1cccc(-c2cc(Nc3cc(F)nc(N4CCOCC4)n3)c3cccnc3n2)n1` [compound 84], the IC50 (on GST-ALK5; in assay [1]) was above 10000 nM in each case. Regarding `Cc1cccc(-c2cc(Nc3ccnc(NC(N)=O)c3)c3cccnc3n2)n1` [compound 85], the IC50 at GST-ALK5 is below 100 nM; in assay [1], 100 to 1000 nM. Taken in the same sequence, the figures for `Nc1cc(Nc2cc(-c3ccccc3F)nc3ncccc23)ncn1` [compound 86] were below 100 nM and 100 to 1000 nM. Turning to `CC(C)(C)CC(=O)Nc1cc(Nc2cc(-c3cc(Cl)ccc3F)nc3ncccc23)ccn1` [compound 87], the IC50 (at GST-ALK5; in assay [1]) was below 100 nM in each case. Take `CC(=O)Nc1cc(Nc2cc(-c3ccccc3F)nc3ncccc23)ncn1` [compound 88]: the IC50 at GST-ALK5 is below 100 nM; in assay [1], 100 to 1000 nM.

Regarding `CC(=O)Nc1cc(Nc2cc(-c3cc(F)ccc3F)nc3ncccc23)ncn1` [compound 89], the IC50 (at GST-ALK5; in assay [1]) was below 100 nM in each case.

For `CNc1nccc(Nc2cc(-c3cccc(C)n3)nc3ncccc23)n1` [compound 90], the IC50 at GST-ALK5 is below 100 nM; in assay [1] it was 100 to 1000 nM. As to `CCCC(=O)Nc1cc(Nc2cc(-c3cc(Cl)ccc3F)nc3ncccc23)ccn1` [compound 91], the IC50 (on GST-ALK5; in assay [1]) was below 100 nM throughout. For the compound `CC(C)C(=O)Nc1cc(Nc2cc(-c3cc(Cl)ccc3F)nc3ncccc23)ncn1` [compound 92], the IC50 (on GST-ALK5; in assay [1]) was below 100 nM in each case. With `CN1CCN(c2nccc(Nc3cc(-c4cc(Cl)ccc4F)nc4ncccc34)n2)CC1` [compound 93], the IC50 (at GST-ALK5; in assay [1]) was above 10000 nM in each case.

Source of the values: patent US8815893B2, “Hetarylaminonaphthyridines” (Merck Patent GmbH, priority 2010, dated 2014).
